Here are results for eleven compounds from PubChem BioAssay (NCI).

Experiment in all cases: growth of human tumour cells (NCI), 48 h
For test [1], the system named is SF-268 CNS.
The subject of test [2] is OVCAR-8 ovarian.
For test [3], the system named is NCI/ADR-RES ovarian.
The subject of test [4] is HS 578T breast.
Test [5] deals with TK-10 renal.
The test system of test [6] is IGROV1 ovarian.
Test [7] relates to RPMI-8226 leukemia.
Test [8] concerns CAKI-1 renal.
Test [9] relates to COLO 205 colon.
Test [10] deals with SK-OV-3 ovarian.

“And” between values parts separate entries of the source, which are not always exact repeats. Identical values can stand only once.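 Method: 48-hour compound exposure of cells in 96-well plates, five concentrations, linear interpolation of endpoints. Here, GI50 denotes the concentration required for 50% inhibition of growth. The concentration for full growth arrest is given as TGI.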

In the case of `COC(=N)c1c(N)[n+]([O-])c2ccc(F)cc2[n+]1[O-]`, the GI50 was more than 100 µM in test [1]; more than 100 µM in test [2]; more than 100 µM in [3]; more than 100 µM in [4]; more than 100 µM in test [5]; 18.1 µM in test [6]. Also, the GI50 in test [7] was 81.2 µM; in test [8], more than 100 µM; in [9], 61.7 µM; in test [10], more than 100 µM. For the same compound, the TGI in [1] is more than 100 µM; in [2], more than 100 µM; in test [3], more than 100 µM; in [4] it was more than 100 µM; in test [5], more than 100 µM; in [6] it was 86.5 µM. Moreover, the TGI in test [7], in test [8], in [9] and in test [10] was more than 100 µM each time.
As for `COC(=O)c1cc2ccccc2c2c3c(ccc12)OCO3`, the GI50 in test [1] is 50.6 µM; in [2], 41.1 µM; in test [3], 54.4 µM; in [4], 36.4 µM; in test [5] it was 43.8 µM; in test [6], 90.7 µM. The figures for the GI50 in test [7], in test [8] and in test [10] were 430 µM, 278 µM and 45.8 µM, respectively. The TGI in test [1] was 371 µM; in test [2] it was more than 1000 µM; in [3], more than 1000 µM; in test [4], 247 µM; in test [5], 325 µM; in [6] it was more than 1000 µM. Besides, the TGI was more than 1000 µM in test [7], more than 1000 µM in test [8], more than 1000 µM in test [9] and 357 µM in test [10].
`COC(=O)C1=C(C)NC(C)=C(C(=O)OCC(C)C)C1c1ccccc1[N+](=O)[O-]` (stereo not given): the GI50 is 7.8 µM in [1]; 4.33 µM in test [2]; 2.07 µM in test [3]; 13.9 µM in test [4]; 4.11 µM in test [5]; 5.55 µM in [6]. In addition, the GI50 in test [7] is 3.25 µM; in test [8], 2.29 µM; in [9], 13.3 µM; in test [10], 4.65 µM. In addition, the TGI is 22.7 µM in [1]; 21 µM in [2]; 16.8 µM in test [3]; more than 100 µM in test [4]; 13 µM in [5]; 25.9 µM in test [6]. Besides, the TGI in test [7] was found to be 25.8 µM; in test [8] it was 11 µM; in test [9], 26 µM; in [10] it was 17.4 µM.
For `O=S(=O)(c1cccc2c(I)cccc12)N1CCCNCC1`, the GI50 in test [1] is 26.6 µM; in test [2], 24.4 µM; in [3] it was 20.2 µM; in test [4], 15.4 µM; in [5], 12.8 µM; in test [6] it was 15.8 µM. Besides, the GI50 in test [7] is 14.5 µM; in test [8] it was 19.2 µM; in [9], 29.1 µM; in [10], 20.2 µM. Besides, the TGI was more than 100 µM in [1]; 51.9 µM in test [2]; 43.5 µM in [3]; 39.5 µM in test [4]; 28 µM in test [5]; 31.4 µM in [6]. For the same compound, the TGI was 38.5 µM in test [7], 37.8 µM in test [8], more than 100 µM in [9] and 37.6 µM in [10].
With `COc1cccc(-c2cc3c4c(nc5ccccc53)C(=O)c3cccnc3-c4n2)c1`, the GI50 was 3.27 µM in [1]; 1.69 µM in [2]; 2.22 µM in test [3]; 3.18 µM in [4]; 5.03 µM in test [5]; 3.37 µM in test [6]. Moreover, the GI50 in [7] was 1.2 µM; in test [8] it was 3.36 µM; in test [9], 5.56 µM; in [10] it was 8.57 µM. The TGI in [1] is 14.9 µM; in test [2] it was 7.08 µM; in test [3], 7.92 µM; in test [4], 11.2 µM; in test [5] it was more than 64.8 µM; in test [6], 14.4 µM. Further, the TGI came to 4.22 µM in [7], 11.5 µM in test [8], 10.9 µM in [9] and 25.7 µM in [10].
In the case of `COc1cc([N+](=O)[O-])c(OC)cc1-c1nc2sccn2c1/C=N/N=C(N)N`, the GI50 was 4.86 µM in test [1]; 17.3 µM in test [2]; 51.1 µM in test [3]; 19 µM in [4]; 18 µM in test [5]; 10.4 µM in [6]. The GI50 in test [7] was more than 100 µM; in test [8], 22.9 µM; in test [9] it was 66 µM; in test [10], 36.5 µM. The TGI in [1] is 35.3 µM; in [2] it was 59.8 µM; in test [3], more than 100 µM; in [4] it was 43.9 µM; in [5], 50.6 µM; in test [6], 50 µM. Moreover, the TGI is more than 100 µM in test [7], 66.3 µM in test [8], more than 100 µM in [9] and 94.8 µM in test [10].
Consider `O=c1c(O)c(-c2ccc(O)c(O)c2)oc2cc(O)cc(O)c12`, for which the GI50 in test [1] was 10.2 µM; in test [2], 14.1 µM; in test [3], 12.8 µM; in test [4], 4.12 µM; in test [5], 49.4 µM; in test [6], 11.5 µM. The GI50 was 10.2 µM in test [7], 20.4 µM in test [8], 60.8 µM in [9] and 18.3 µM in test [10]. For the same compound, the TGI in test [1] is 75.5 µM and > 100 µM; in test [2], more than 100 µM; in [3], 63.8 µM; in test [4], more than 50.7 µM; in test [5], more than 100 µM; in test [6] it was more than 100 µM. Also, the TGI in test [7] was 86.9 µM; in [8] it was more than 100 µM; in test [9], more than 100 µM; in [10], 68.5 µM and > 100 µM.
Consider `CC(C)CCNCC(O)Cn1c2ccccc2c2ccccc21` (stereo not given), for which the GI50 in test [1] is 12.2 µM; in [2], 13.7 µM; in test [3], 14.2 µM; in [4], 13.8 µM; in test [5], 14 µM; in test [6], 14 µM. The GI50 is 3.1 µM in [7], 14.3 µM in [8], 2 µM in test [9] and 17.2 µM in test [10]. In addition, the TGI in [1] was 26.4 µM; in test [2], 33.7 µM; in test [3], 30.7 µM; in [4], 38.9 µM; in test [5], 27.6 µM; in test [6] it was 32.1 µM. The TGI in test [7] was determined as 11.2 µM; in test [8], 29.8 µM; in [9] it was 3.95 µM; in [10], 31.2 µM.
`CC[C@H](CO)Nc1nc(NCc2ccccc2)c2ncn(C(C)C)c2n1`: the TGI was more than 75.1 µM in [1]; more than 100 µM in test [2]; 56.6 µM in test [3]; 68.2 µM in test [4]; more than 100 µM in test [5]; more than 86.2 µM in test [6]. Besides, the TGI in test [7] is more than 77.8 µM; in test [8] it was more than 100 µM; in test [9], 36.6 µM; in test [10] it was more than 100 µM. In addition, the GI50 was 29.3 µM in [2]; 10.9 µM in test [3]; 20.8 µM in [4]; 44.9 µM in test [5]; 11.9 µM in test [6]; 10.9 µM in [8].
For the compound `Cc1ccc(C(=O)NC2CCC2)cc1-c1ccc(C(=O)NCC2CC2)cc1`, the GI50 in test [1], in test [2], in test [3], in [4], in [5] and in test [6] was more than 25 µM in each case. The GI50 in test [7], in test [8], in [9] and in test [10] was more than 25 µM in each case. The TGI in test [1], in [2], in test [3], in test [4], in test [5] and in test [6] was more than 25 µM throughout. Further, the TGI in [7], in test [8], in test [9] and in test [10] was more than 25 µM in each case.
Turning to `Cc1[nH]c(=O)nc(Nc2ccc(Cl)cc2)c1C(=O)N1CCN(CCO)CC1`, the GI50 in test [1] was 65 µM; in test [2] it was 72 µM; in [3], more than 100 µM; in test [4] it was 34.2 µM; in test [5], 77.7 µM; in test [6], more than 100 µM. For the same compound, the GI50 in test [7] is more than 100 µM; in [8], more than 100 µM; in test [9], more than 100 µM; in test [10] it was 29.8 µM. Besides, the TGI in test [1], in test [2], in test [3], in test [4], in test [5] and in test [6] was more than 100 µM in each case. The TGI is more than 100 µM in [7], more than 100 µM in test [8], more than 100 µM in test [9] and 83.1 µM in [10].
